Laboratory results published in patent US8377974B2 (Millennium Pharmaceuticals, Inc., priority 2004, dated 2013).

Molecular target: T1, human plasma protein factor Xa (Homo sapiens, UniProt P00742)
T1 construct: measure proteolytic activity of the enzyme (factor Xa); purchased Haematologic Technologies (Essex Junction, Vt.); host or cells: human plasma
Test: Factor Xa IC50 determination: cleavage of paranitroanilide substrate S-2765 in 96-well plates
Assay type: biochemical
Settings: fXa 1 nM, S-2765 100 μM, Tris buffered saline pH 7.4, room temperature
In short: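 Human plasma factor Xa (1 nM) preincubated 5 min at room temperature with inhibitor (0.01 nM–10 μM final) in Tris-buffered saline pH 7.4 with 5 mM CaCl2, 0.1% BSA, 5% DMSO. S-2765 at 100 μM final; hydrolysis at 405 nm over 2 min. IC50 from 4-parameter fit of initial velocities.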

T1 sequence (P00742 235-488 limits assumed): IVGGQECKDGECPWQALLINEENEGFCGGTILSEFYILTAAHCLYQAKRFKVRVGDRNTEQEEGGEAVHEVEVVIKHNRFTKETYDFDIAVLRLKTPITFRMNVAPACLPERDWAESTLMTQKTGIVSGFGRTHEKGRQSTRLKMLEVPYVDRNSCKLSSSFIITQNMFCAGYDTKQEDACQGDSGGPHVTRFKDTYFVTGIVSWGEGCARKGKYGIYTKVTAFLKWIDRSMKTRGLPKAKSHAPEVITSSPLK
T1 sequence (P00742 41-179 partner limits assumed): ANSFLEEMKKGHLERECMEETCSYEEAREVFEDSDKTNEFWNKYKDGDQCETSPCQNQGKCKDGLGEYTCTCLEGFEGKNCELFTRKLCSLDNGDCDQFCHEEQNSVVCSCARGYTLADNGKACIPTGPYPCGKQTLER

Row | SMILES | IC50 [nM]
1 | O=C(NCc1cc(-c2ccc(N3CCOCC3)cc2)no1)c1ccc(Cl)s1 [Example 257, 5-Chloro-thiophene-2-carboxylic acid [3-(4-morpholin-4-yl-phenyl)-isoxazol-5-ylmethyl]-amide] | ≥ 500
2 | CN1CCN(c2ccc(C3=NOC(CNC(=O)c4ccc(Cl)s4)C3)cc2)CC1 (stereo not shown) [Example 235, 5-Chloro-thiophene-2-carboxylic acid {3-[4-(4-methyl-piperazin-1-yl)-phenyl]-4,5-dihydro-isoxazol-5-ylmethyl}-amide] | 100 to 500
3 | COC(=O)c1ccc(C2=NOC(CNC(=O)c3ccc(Cl)s3)C2)cc1 (stereo not shown) [Example 156, 4-(5-{[(5-Chloro-thiophene-2-carbonyl)-amino]-methyl}-4,5-dihydro-isoxazol-3-yl)-benzoic acid methyl ester] | ≥ 500
4 | CCN(C)C(=N)c1ccc(-c2cc(CN(C)C(=O)c3ccc(Cl)s3)on2)cc1 [Example 42, 5-Chloro-thiophene-2-carboxylic acid {3-[4-(N-ethyl-N-methyl-carbamimidoyl)-phenyl]-isoxazol-5-ylmethyl}-methyl-amide] | ≥ 500
5 | O=C(NCC1CC(c2cccc(-c3ccccc3CN3CCCC3)c2)=NO1)c1ccc(Cl)s1 (stereo not shown) [Example 263, 5-Chloro-thiophene-2-carboxylic acid [3-(2′-pyrrolidin-1-ylmethyl-biphenyl-3-yl)-4,5-dihydro-isoxazol-5-ylmethyl]-amide] | ≥ 500
6 | O=C(NCc1cn(-c2ccc(N3CCNCC3)nc2)nn1)c1ccc(Cl)s1 [Example 390, 5-Chloro-N-((1-(6-(piperazin-1-yl)pyridin-3-yl)-1H-1,2,3-triazol-4-yl)methyl)thiophene-2-carboxamide] | 100 to 500
7 | CN(Cc1ccco1)C(=N)c1ccc(-c2nc(CNC(=O)c3ccc(Cl)s3)cs2)cc1 [Example 356, N-((2-(4-(N-(Furan-2-ylmethyl)-N-methylcarbamimidoyl)phenyl)thiazol-4-yl)methyl)-5-chlorothiophene-2-carboxamide] | ≥ 500
8 | CN(Cc1cc(-c2ccc(C(=N)N3CCCCC3)cc2)no1)C(=O)c1ccc(Cl)s1 [Example 38, 5-Chloro-thiophene-2-carboxylic acid {3-[4-(imino-piperidin-1-yl-methyl)-phenyl]-isoxazol-5-ylmethyl}-methyl-amide] | ≥ 500
9 | C[C@@H](NC(=O)c1ccc(Cl)s1)c1cc(-c2ccc(C(=N)N3CCCCC3)cc2)no1 [Example 52, (R)-5-Chloro-thiophene-2-carboxylic acid (1-{3-[4-(imino-piperidin-1-yl-methyl)-phenyl]-isoxazol-5-yl}-ethyl)-amide] | ≥ 500
10 | N=C(c1ccc(-n2cc(CNC(=O)c3ccc(Cl)s3)nn2)c(F)c1)N1CCCC1 [Example 322, 5-Chloro-N-((1-(2-fluoro-4-(imino(pyrrolidin-1-yl)methyl)phenyl)-1H-1,2,3-triazol-4-yl)methyl)thiophene-2-carboxamide] | ≤ 100
11 | CN1CCN=C1c1ccc(-c2nc(CNC(=O)c3ccc(Cl)s3)co2)cc1 [Example 339, 5-Chloro-N-((2-(4-(1-methyl-4,5-dihydro-1H-imidazol-2-yl)phenyl)oxazol-4-yl)methyl)thiophene-2-carboxamide] | ≤ 100
12 | COC(=O)c1ccccc1Nc1ccc(C2=NOC(CNC(=O)c3ccc(Cl)s3)C2)cc1 (stereo not shown) [Example 260, 2-[4-(5-{[(5-Chloro-thiophene-2-carbonyl)-amino]-methyl}-4,5-dihydro-isoxazol-3-yl)-phenylamino]-benzoic acid methyl ester] | ≥ 500
13 | O=C(NCc1cc(-c2cccc(-c3ccccc3CN3CCCC3)c2)no1)c1ccc(Cl)s1 [Example 269, 5-Chloro-thiophene-2-carboxylic acid [3-(2′-pyrrolidin-1-ylmethyl-biphenyl-3-yl)-isoxazol-5-ylmethyl]-amide] | ≤ 100
14 | O=C(NCc1cn(-c2ccc(N3CCOCCC3=O)cc2)nn1)c1ccc(Cl)s1 [Example 303, 5-Chloro-N-((1-(4-(5-oxo-1,4-oxazepan-4-yl)phenyl)-1H-1,2,3-triazol-4-yl)methyl)thiophene-2-carboxamide] | ≤ 100
15 | CCOc1cc(C(=N)N2CCCC2)ccc1-c1cc(CNC(=O)c2ccc(Cl)s2)on1 [Example 124, 5-Chloro-thiophene-2-carboxylic acid {3-[2-ethoxy-4-(imino-pyrrolidin-1-yl-methyl)-phenyl]-isoxazol-5-ylmethyl}-amide] | ≤ 100
16 | COCCN(C)c1cc(C2=NCCN2C)ccc1C1=NOC(CNC(=O)c2ccc(Cl)s2)C1 (stereo not shown) [Example 87] | 100 to 500

The next lines start with the values.

Row | IC50 [nM] | SMILES
17 | ≤ 100 | N=C(c1ccc(-c2cc(CNC(=O)c3ccc(Cl)s3)no2)cc1)N1CCCC1 [Example 332, 5-Chloro-N-((5-(4-(imino(pyrrolidin-1-yl)methyl)phenyl)isoxazol-3-yl)methyl)thiophene-2-carboxamide]
18 | ≤ 100 | CN1CCN(c2ccc(C3=NOC(CNC(=O)c4ccc(Cl)s4)C3)cc2)C1=O (stereo not shown) [Example 245, 5-Chloro-thiophene-2-carboxylic acid {3-[4-(3-methyl-2-oxo-imidazolidin-1-yl)-phenyl]-4,5-dihydro-isoxazol-5-ylmethyl}-amide]
19 | ≤ 100 | CCN(C)C(=N)c1ccc(C2=NOC(C)(CNC(=O)c3ccc(Cl)s3)C2)cc1 (stereo not shown) [Example 64, 5-Chloro-thiophene-2-carboxylic acid {3-[4-(N-ethyl-N-methyl-carbamimidoyl)-phenyl]-5-methyl-4,5-dihydro-isoxazol-5-ylmethyl}-amide]
20 | ≤ 100 | COc1cc(C(=N)N2CCCCC2)ccc1C1=NOC(CNC(=O)c2ccc(Cl)s2)C1 (stereo not shown) [Example 105, 5-Chloro-thiophene-2-carboxylic acid {3-[4-(imino-piperidin-1-yl-methyl)-2-methoxy-phenyl]-4,5-dihydro-isoxazol-5-ylmethyl}-amide]
21 | ≤ 100 | CN1CCN=C1c1ccc(-c2cc(CNC(=O)c3ccc(Cl)s3)on2)cc1 [Example 22, 5-Chloro-thiophene-2-carboxylic acid {3-[4-(1-methyl-4,5-dihydro-1H-imidazol-2-yl)-phenyl]-isoxazol-5-ylmethyl}-amide]
22 | ≤ 100 | CN(Cc1ccco1)C(=N)c1ccc(-c2cc(CNC(=O)c3ccc(Cl)s3)on2)cc1 [Example 31, 5-Chloro-thiophene-2-carboxylic acid {3-[4-(N-furan-2-ylmethyl-N-methyl-carbamimidoyl)-phenyl]-isoxazol-5-ylmethyl}-amide]
23 | ≤ 100 | CN(C)C(=N)c1ccc(-c2cccc(CNC(=O)c3ccc(Cl)s3)c2)cc1 [Example 380, N-((3-(4-(N,N-Dimethylcarbamimidoyl)phenyl)phenyl)methyl)-5-chlorothiophene-2-carboxamide]
24 | ≤ 100 | CC(C)Oc1cc(C(=N)N(C)C)ccc1-c1cc(CNC(=O)c2ccc(Cl)s2)on1 [Example 126, 5-Chloro-thiophene-2-carboxylic acid {3-[4-(N,N-dimethyl-carbamimidoyl)-2-isopropoxy-phenyl]-isoxazol-5-ylmethyl}-amide]
25 | ≤ 100 | COc1ccc(-c2ccc(-c3cc(CNC(=O)c4ccc(Cl)s4)on3)cc2)c(CN(C)C)c1 [Example 217, 5-Chloro-thiophene-2-carboxylic acid [3-(2′-dimethylaminomethyl-4′-methoxy-biphenyl-4-yl)-isoxazol-5-ylmethyl]-amide]
